Results reported in publication PMC7822874, “Chemoprotective antimalarials identified through quantitative high-throughput screening of Plasmodium blood and liver stage parasites” (Scientific Reports, 2021).
Values joined by “and” are separate entries in the source; they are usually repeats but may differ in a detail not shown here. Equal entries are not always repeated. Where two headings read alike, the source gives them in different places.

How the values were obtained:
[1] = tested on: P. berghei-ANKA-GFP-LucCON liver stage parasites in HepG2-A16-CD81EGFP cells; assay: P. berghei liver stage Pb-Luc assay, Method 1 (UCSD, 1536-well); assay type: cell-based, Plasmodium berghei; conditions: for activity at 1 µM / activity at 3 µM: Plasmodium berghei, 48 h; for activity at 1 µM / PbLuc 1uM growth rep1 / PbLuc 1uM growth rep2: 1 µM compound treatment (10 mM stocks); for activity at 1 µM / activity at 3 µM / PbLuc 1uM growth rep1 / PbLuc 1uM growth rep2 / PbLuc 3uM growth rep1 / PbLuc 3uM growth rep2: average of 2 wells on a 1536 well plate; for activity at 3 µM / PbLuc 3uM growth rep1 / PbLuc 3uM growth rep2: 3 µM compound treatment (10 mM stocks)
[2] = tested on: Plasmodium falciparum Dd2 asexual blood stage parasites; assay: microbe, parasite or virus in culture; design: species or system Plasmodium falciparum Dd2 in human erythrocytes; single determination (one 11-point concentration-response curve); conditions: Plasmodium falciparum, DD2, Erythrocyte, 72 h; read-out: AC50
HepG2-A16-CD81EGFP cells = conditions: for HepG2 1uM growth rep1 / HepG2 1uM growth rep2: HepG2, 1 µM compound treatment (10 mM stocks); for HepG2 1uM growth rep1 / HepG2 3uM growth rep1: replicate 1, normalized; for HepG2 1uM growth rep1 / HepG2 1uM growth rep2 / HepG2 3uM growth rep1 / HepG2 3uM growth rep2: average of 2 wells; for HepG2 1uM growth rep2 / HepG2 3uM growth rep2: replicate 2, normalized; for HepG2 3uM growth rep1 / HepG2 3uM growth rep2: HepG2, 3 µM compound treatment (10 mM stocks); for Average HepG2 3 µM response( %): averaged response (percent)
[3] = P. berghei liver stage, replicate 1, normalized, read-out: PbLuc 1uM growth rep1
[4] = P. berghei liver stage, replicate 2, normalized, read-out: PbLuc 1uM growth rep2
[5] = P. berghei liver stage, replicate 1, normalized, read-out: PbLuc 3uM growth rep1
[6] = P. berghei liver stage, replicate 2, normalized, read-out: PbLuc 3uM growth rep2
[7] = P. berghei liver stage, replicate 1, normalized
[8] = P. berghei liver stage, replicate 2, normalized

| Structure (SMILES) | activity at 1 µM [1, 3] [%] | activity at 1 µM [1, 4] [%] | activity at 3 µM [1, 5] [%] | activity at 3 µM [1, 6] [%] | AC50 [2] [nM] | HepG2 1uM growth rep1 (HepG2-A16-CD81EGFP cells) [%] | HepG2 1uM growth rep2 (HepG2-A16-CD81EGFP cells) [%] | HepG2 3uM growth rep1 (HepG2-A16-CD81EGFP cells) [%] | HepG2 3uM growth rep2 (HepG2-A16-CD81EGFP cells) [%] | PbLuc 1uM growth rep1 [1, 7] [%] | PbLuc 1uM growth rep2 [1, 8] [%] | PbLuc 3uM growth rep1 [1, 7] [%] | PbLuc 3uM growth rep2 [1, 8] [%] | also measured |
| --- | --- | --- | --- | --- | --- | --- | --- | --- | --- | --- | --- | --- | --- | --- |
| Cc1ccnc(NC(=O)c2cccc(S(=O)(=O)N3CCCc4ccccc43)c2)c1 [MLS001159724-01] | 100 | 97 | 38 | 52 | 2370 | 101 | 95 | 90 | 89 |  |  |  |  |  |
| Cc1ccc(-c2nn(-c3ccccc3)c3[nH]c(=O)c(CNCc4ccccc4)cc23)cc1 [MLS000067457-01] | 76 | 56 | 38 | 42 | 422 | 95 | 94 | 91 | 100 |  |  |  |  |  |
| O=C(CCl)Nc1ccc(Oc2cnc3ccccc3n2)cc1 [MLS000327546-01] | 99 | 119 | 104 | 138 | 3350 | 90 | 86 | 92 | 90 |  |  |  |  |  |
| COc1cc(O)c(C(CCN2CCCCC2)c2ccc(N(C)C)cc2)c(OC)c1 (stereo not drawn) [MLS000879496-01] | 126 | 95 | 91 | 95 | 2660 | 108 | 100 | 87 | 98 |  |  |  |  |  |
| CCn1cnc2c(Nc3cc(F)cc(F)c3)nc(C#N)nc21 [MLS002471782-01] | 155 | 128 | 149 | 187 | 2370 | 88 | 82 | 83 | 89 |  |  |  |  |  |
| Cc1cc(C)c(C)c(S(=O)(=O)NCc2ccc(C(=O)N3CCCCC3)cc2)c1C [MLS000547926-01] | 124 | 129 | 104 | 108 | 3760 | 93 | 95 | 87 | 94 |  |  |  |  |  |
| CC1CCN(c2ccc(C(=O)NCc3ccco3)cc2[N+](=O)[O-])CC1 [MLS000389854-01] | 63 | 57 | 20 | 28 | 6680 | 91 | 90 | 88 | 94 |  |  |  |  |  |
| O=C1N(c2ccccc2C(F)(F)F)OC1(Cc1ccccc1)c1ccccc1 (stereo not drawn) [MLS002206595-01] |  |  |  |  |  | 104 | 93 | 82 | 88 | 103 | 105 | 93 | 118 |  |
| Br.N=c1n(CCN2CCCCC2)c2ccccc2n1CC(=O)c1ccc(Cl)c(Cl)c1 [MLS001042209-01] |  |  |  |  |  | 87 | 90 | 85 | 90 | 90 | 95 | 75 | 102 |  |
| O=C(CCCCCCC(=O)Nc1ccccc1)NO [NCGC00168085-22] |  |  |  |  |  |  |  |  |  |  |  |  |  | Pb-Luc signal, 1 uM, repeat 1 ([1]; nominal 1 uM (10 mM stock), […] for 15 mM, 1.2 uM for 12 mM, 2 uM for 20 mM stock, average of 2 wells, 1536-well plate, repeat 1): 18.69%; Pb-Luc signal, 1 uM, repeat 2 ([1]; nominal 1 uM (10 mM stock), […] for 15 mM, 1.2 uM for 12 mM, 2 uM for 20 mM stock, average of 2 wells, 1536-well plate, repeat 2): 22.42%; Pb-Luc signal, 1 uM, repeat 3 ([1]; nominal 1 uM (10 mM stock), […] for 15 mM, 1.2 uM for 12 mM, 2 uM for 20 mM stock, average of 2 wells, 1536-well plate, repeat 3): 16.08%; Pb-Luc signal, 3 uM, repeat 1 ([1]; nominal 3 uM (10 mM stock), 4.5 uM for 15 mM, 3.6 uM for 12 mM, 6 uM for 20 mM stock, average of 2 wells, 1536-well plate, repeat 1): 2.01%; Pb-Luc signal, 3 uM, repeat 2 ([1]; nominal 3 uM (10 mM stock), 4.5 uM for 15 mM, 3.6 uM for 12 mM, 6 uM for 20 mM stock, average of 2 wells, 1536-well plate, repeat 2): 4.89%; Pb-Luc signal, 3 uM, repeat 3 ([1]; nominal 3 uM (10 mM stock), 4.5 uM for 15 mM, 3.6 uM for 12 mM, 6 uM for 20 mM stock, average of 2 wells, 1536-well plate, repeat 3): 2.03%; HepG2 viability signal, 1 uM, repeat 1 (HepG2-A16-CD81EGFP cells): 84.33%; HepG2 viability signal, 1 uM, repeat 2 (HepG2-A16-CD81EGFP cells): 78.31%; HepG2 viability signal, 3 uM, repeat 1 (HepG2-A16-CD81EGFP cells): 48.31%; HepG2 viability signal, 3 uM, repeat 2 (HepG2-A16-CD81EGFP cells): 48.65% |
| COc1ccccc1[C@@]1(C)ON(c2ccccc2C(F)(F)F)C1=O [MLS002206613-01] |  |  |  |  |  | 103 | 96 | 83 | 94 | 129 | 87 | 95 | 109 |  |
| Cc1ccc(Nc2cc(C)nc(NCc3ccccc3)n2)cc1 [MLS000574704-01] | 61 | 54 | 31 | 43 |  | 83 | 84 | 81 | 80 |  |  |  |  |  |
| CC(=O)OC[C@]12CCC(C)=C[C@H]1O[C@@H]1[C@H](O)[C@@H](OC(C)=O)[C@@]2(C)[C@]12CO2 [MLS000863617-01] |  |  |  |  |  |  |  |  |  |  |  |  |  | Pb-Luc (P. berghei liver stage luciferase signal), % of control, repeat 1 [1]: 4.68% and -0.33%; Pb-Luc (P. berghei liver stage luciferase signal), % of control, repeat 2 [1]: 4.34% and -1.04%; Pb-Luc (P. berghei liver stage luciferase signal), % of control, repeat 3 [1]: -2.60% and 1.77%; HepG2 viability, % of control, column 14 (HepG2-A16-CD81EGFP cells): 5.74%; HepG2 viability, % of control, column 15 (HepG2-A16-CD81EGFP cells): 8.75%; HepG2 viability, % of control, column 16 (HepG2-A16-CD81EGFP cells): 5.74%; HepG2 viability, % of control, column 17 (HepG2-A16-CD81EGFP cells): 8.75% |
| Cc1ccc(-c2cc(C(=O)Nc3ccc(S(=O)(=O)N4CC(C)OC(C)C4)cc3)[nH]n2)c(O)c1 (stereo not drawn) [MLS000779230-01] |  |  |  |  |  | 106 | 100 | 84 | 94 | 151 | 112 | 73 | 94 |  |
| CC(C)N(Cc1ccccc1)C(=O)CN1C(=O)COc2ccc(S(=O)(=O)N3CCCCCC3)cc21 [MLS001124552-01] |  |  |  |  |  | 91 | 91 | 88 | 90 | 121 | 115 | 113 | 144 |  |
| CCSc1nc2sc3c(c2c(=O)n1-c1ccccc1)CCN(C(C)C)C3 [MLS001173590-01] |  |  |  |  |  | 104 | 95 | 87 | 98 | 97 | 84 | 60 | 65 |  |
| Cc1cc(C)n(Cc2ccc(C(=O)N3CCC(c4noc(-c5cccnc5)n4)C3)o2)n1 (stereo not drawn) [NCGC00441856] |  |  |  |  |  |  |  |  |  |  |  |  |  | Average P. berghei 3 µM response( %) ([1]; P. berghei liver stage, 3 µM dose, averaged response (percent)): 100%; Average P. berghei 1 µM response (%) ([1]; P. berghei liver stage, the header list (r8) defines it as the 1 µM dose, averaged response (percent)): 107%; Average HepG2 3 µM response( %) (HepG2-A16-CD81EGFP cells; HepG2, 3 µM dose): 104%; Average HepG2 3 µM response( %) (HepG2-A16-CD81EGFP cells; HepG2, the header list (r10) describes it as the 1 µM dose): 103% |
| Oc1ccccc1Nc1nc(NCc2ccccc2)c2ccccc2n1 [MLS000693415-01] | 72 | 80 | 65 | 75 |  | 89 | 90 | 92 | 90 |  |  |  |  |  |
| Cc1ccc(NC2=C/C(=N/S(=O)(=O)c3cccs3)c3ccccc3C2=O)cc1C [MLS000585841-01] |  |  |  |  |  | 102 | 96 | 77 | 86 | 82 | 86 | 57 | 72 |  |
